Measured values: ChEMBL document CHEMBL5291721, “A preclinical secondary pharmacology resource illuminates target-adverse drug reaction associations of marketed drugs” (Nat Commun, 2023)

Assays:
Mu-type opioid receptor = Mu-type opioid receptor (Homo sapiens, UniProt P35372); test: biochemical; format: functional
[1] = target: Beta-3 adrenergic receptor (Homo sapiens, UniProt P13945)
[2] = target: T1, Muscarinic acetylcholine receptor M5 (Homo sapiens, UniProt P08912)
T1 sequence (P08912 whole entry): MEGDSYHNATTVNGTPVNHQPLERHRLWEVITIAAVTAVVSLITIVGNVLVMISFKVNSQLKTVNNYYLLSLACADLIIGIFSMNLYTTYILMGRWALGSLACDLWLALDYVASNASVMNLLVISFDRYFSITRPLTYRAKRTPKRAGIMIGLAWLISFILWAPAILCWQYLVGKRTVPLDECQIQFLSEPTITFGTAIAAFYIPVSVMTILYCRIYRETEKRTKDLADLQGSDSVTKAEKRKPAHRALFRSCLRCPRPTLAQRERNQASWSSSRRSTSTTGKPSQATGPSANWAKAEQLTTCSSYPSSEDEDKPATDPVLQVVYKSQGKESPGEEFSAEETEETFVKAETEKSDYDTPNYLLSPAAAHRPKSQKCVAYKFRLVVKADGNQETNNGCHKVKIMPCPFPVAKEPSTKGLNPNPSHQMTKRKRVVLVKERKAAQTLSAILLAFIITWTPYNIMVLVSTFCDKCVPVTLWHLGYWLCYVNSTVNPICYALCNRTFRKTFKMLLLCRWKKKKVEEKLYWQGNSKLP

Cannabinoid receptor 1 = Cannabinoid receptor 1 (Homo sapiens, UniProt P21554)
[3] = target: T2, Endothelin receptor type B (Homo sapiens, UniProt P24530)
T2 sequence (P24530 whole entry): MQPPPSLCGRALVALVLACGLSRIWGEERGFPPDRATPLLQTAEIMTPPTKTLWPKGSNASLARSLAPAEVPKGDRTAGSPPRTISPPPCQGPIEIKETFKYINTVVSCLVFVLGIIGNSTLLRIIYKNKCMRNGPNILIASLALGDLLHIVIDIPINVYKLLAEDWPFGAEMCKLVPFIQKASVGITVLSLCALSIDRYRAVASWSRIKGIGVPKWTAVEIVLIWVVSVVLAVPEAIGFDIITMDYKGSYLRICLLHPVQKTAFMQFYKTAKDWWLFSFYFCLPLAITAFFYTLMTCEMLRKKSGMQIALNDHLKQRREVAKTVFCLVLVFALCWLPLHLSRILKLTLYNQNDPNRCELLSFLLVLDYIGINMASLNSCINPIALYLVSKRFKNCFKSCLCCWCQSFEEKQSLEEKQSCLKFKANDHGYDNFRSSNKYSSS

Estrogen receptor beta = Estrogen receptor beta (Homo sapiens, UniProt Q92731)
Histamine H2 receptor = Histamine H2 receptor (Homo sapiens, UniProt P25021)
[4] = target: 5-hydroxytryptamine receptor 7 (Homo sapiens, UniProt P34969)
Progesterone receptor = target: T3, Progesterone receptor (Homo sapiens, UniProt P06401)
T3 sequence (P06401 whole entry): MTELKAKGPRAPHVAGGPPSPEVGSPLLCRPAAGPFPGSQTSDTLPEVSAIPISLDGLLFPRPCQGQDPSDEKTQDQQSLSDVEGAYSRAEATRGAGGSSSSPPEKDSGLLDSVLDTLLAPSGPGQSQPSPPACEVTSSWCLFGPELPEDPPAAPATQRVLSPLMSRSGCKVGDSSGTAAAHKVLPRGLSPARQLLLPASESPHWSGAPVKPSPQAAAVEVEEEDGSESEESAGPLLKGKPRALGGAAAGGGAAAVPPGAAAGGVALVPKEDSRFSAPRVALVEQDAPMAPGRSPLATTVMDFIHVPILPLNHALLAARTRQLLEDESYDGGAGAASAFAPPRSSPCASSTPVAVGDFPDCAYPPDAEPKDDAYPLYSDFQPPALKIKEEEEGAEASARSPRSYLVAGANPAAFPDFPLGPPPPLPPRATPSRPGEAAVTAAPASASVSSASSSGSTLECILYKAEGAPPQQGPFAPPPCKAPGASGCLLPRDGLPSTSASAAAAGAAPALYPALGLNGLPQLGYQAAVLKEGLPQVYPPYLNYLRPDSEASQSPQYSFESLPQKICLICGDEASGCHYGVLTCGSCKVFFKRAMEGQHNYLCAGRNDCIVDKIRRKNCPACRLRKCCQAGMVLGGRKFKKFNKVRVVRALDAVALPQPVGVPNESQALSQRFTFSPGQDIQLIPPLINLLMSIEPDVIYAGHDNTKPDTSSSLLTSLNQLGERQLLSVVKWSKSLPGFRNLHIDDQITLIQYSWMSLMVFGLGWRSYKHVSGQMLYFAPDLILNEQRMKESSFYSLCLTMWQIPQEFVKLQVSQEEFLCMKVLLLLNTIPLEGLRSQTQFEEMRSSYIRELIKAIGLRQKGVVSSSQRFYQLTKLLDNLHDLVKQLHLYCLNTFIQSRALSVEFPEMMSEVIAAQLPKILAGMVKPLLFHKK

D(1A) dopamine receptor = D(1A) dopamine receptor (Homo sapiens, UniProt P21728)
Estrogen receptor = target: T4, Estrogen receptor (Homo sapiens, UniProt P03372); format: functional
T4 sequence (P03372 whole entry): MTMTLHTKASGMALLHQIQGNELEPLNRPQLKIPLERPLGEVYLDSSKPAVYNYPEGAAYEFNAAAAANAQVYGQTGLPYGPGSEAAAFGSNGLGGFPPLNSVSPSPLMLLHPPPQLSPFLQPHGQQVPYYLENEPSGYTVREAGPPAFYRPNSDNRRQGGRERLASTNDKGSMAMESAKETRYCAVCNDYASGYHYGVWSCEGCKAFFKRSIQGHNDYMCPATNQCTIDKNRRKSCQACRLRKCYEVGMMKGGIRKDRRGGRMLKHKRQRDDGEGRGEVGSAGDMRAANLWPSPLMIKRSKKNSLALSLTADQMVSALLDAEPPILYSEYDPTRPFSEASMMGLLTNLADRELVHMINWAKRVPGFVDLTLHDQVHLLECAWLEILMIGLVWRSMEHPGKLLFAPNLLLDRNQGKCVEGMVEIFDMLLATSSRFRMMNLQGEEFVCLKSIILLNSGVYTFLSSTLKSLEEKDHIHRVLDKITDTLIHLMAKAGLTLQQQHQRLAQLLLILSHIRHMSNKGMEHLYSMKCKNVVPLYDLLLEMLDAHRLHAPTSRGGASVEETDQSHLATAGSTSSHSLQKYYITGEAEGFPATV

[5] = target: Vascular endothelial growth factor receptor 2 (Homo sapiens, UniProt P35968); format: functional
Also: assay procedure not described here.

Chain of 5-hydroxytryptamine receptor 7 (P34969 whole entry): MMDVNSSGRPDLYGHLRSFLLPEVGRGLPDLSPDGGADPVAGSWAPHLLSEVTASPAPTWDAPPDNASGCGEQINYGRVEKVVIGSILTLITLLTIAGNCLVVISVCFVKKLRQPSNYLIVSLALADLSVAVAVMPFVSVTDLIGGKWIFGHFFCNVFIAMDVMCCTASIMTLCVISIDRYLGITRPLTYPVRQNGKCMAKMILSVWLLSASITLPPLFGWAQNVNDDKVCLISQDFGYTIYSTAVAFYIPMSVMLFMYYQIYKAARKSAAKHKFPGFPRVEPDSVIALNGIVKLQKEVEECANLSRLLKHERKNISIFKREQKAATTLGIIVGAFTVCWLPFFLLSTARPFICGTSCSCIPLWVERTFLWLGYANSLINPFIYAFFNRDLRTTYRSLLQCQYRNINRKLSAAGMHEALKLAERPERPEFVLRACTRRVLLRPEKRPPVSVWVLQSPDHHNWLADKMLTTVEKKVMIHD
Chain of Histamine H2 receptor (P25021 whole entry): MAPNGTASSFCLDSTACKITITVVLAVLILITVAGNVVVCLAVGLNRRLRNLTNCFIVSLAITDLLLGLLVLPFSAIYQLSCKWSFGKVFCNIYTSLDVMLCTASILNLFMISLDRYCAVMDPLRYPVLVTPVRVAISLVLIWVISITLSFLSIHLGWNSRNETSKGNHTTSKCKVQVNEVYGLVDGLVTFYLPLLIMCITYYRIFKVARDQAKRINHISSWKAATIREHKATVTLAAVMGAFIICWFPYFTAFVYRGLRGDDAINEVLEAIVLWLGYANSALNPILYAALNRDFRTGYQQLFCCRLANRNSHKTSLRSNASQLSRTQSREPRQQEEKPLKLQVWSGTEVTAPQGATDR
Chain of Beta-3 adrenergic receptor (P13945 whole entry): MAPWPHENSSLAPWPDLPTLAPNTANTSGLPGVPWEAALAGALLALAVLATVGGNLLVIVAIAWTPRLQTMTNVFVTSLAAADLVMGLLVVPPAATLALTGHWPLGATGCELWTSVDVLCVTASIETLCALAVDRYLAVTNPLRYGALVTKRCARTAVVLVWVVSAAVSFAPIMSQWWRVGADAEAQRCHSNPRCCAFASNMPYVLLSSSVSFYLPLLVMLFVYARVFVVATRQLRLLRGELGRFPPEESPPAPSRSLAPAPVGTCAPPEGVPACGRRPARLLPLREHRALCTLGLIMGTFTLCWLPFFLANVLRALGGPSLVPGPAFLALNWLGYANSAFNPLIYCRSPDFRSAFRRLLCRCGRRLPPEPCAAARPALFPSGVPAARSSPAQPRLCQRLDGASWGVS
Chain of D(1A) dopamine receptor (P21728 whole entry): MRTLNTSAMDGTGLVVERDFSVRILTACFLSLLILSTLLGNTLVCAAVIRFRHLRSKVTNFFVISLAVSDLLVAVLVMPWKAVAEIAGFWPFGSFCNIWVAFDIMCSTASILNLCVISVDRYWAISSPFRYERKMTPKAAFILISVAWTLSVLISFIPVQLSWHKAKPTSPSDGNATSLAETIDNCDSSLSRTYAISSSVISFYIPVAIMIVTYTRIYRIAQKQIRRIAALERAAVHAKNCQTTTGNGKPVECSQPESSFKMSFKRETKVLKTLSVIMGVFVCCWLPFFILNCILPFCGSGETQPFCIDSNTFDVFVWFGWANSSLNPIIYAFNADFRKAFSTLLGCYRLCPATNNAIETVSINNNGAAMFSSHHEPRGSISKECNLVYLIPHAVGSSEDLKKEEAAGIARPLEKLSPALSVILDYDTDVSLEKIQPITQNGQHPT
Chain of Estrogen receptor beta (Q92731 whole entry): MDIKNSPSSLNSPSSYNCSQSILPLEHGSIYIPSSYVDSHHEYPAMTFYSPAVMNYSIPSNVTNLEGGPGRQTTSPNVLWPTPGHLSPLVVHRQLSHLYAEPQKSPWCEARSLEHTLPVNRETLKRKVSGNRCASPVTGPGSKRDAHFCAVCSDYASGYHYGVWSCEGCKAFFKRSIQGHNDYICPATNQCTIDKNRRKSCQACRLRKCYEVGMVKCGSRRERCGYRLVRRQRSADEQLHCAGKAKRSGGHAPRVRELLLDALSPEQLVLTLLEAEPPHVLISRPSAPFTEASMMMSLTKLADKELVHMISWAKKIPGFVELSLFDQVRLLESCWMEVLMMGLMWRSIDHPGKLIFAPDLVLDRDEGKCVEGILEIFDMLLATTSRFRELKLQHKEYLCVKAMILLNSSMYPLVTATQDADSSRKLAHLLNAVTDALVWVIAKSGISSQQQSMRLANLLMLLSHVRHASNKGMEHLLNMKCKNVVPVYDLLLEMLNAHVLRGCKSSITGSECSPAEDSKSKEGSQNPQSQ
Chain of Cannabinoid receptor 1 (P21554 whole entry): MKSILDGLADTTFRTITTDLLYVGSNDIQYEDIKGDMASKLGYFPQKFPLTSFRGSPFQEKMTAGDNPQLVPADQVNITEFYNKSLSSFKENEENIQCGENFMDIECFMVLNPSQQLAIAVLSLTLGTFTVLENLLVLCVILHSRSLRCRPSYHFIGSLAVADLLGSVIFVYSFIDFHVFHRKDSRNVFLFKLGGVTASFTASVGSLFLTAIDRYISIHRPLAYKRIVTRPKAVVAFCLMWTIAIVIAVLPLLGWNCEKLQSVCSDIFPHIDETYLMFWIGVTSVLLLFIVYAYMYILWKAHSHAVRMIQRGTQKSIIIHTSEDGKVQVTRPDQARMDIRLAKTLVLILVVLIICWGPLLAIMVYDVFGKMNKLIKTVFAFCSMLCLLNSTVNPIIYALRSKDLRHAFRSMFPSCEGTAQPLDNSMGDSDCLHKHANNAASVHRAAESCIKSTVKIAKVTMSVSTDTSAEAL
Chain of Mu-type opioid receptor (P35372 whole entry): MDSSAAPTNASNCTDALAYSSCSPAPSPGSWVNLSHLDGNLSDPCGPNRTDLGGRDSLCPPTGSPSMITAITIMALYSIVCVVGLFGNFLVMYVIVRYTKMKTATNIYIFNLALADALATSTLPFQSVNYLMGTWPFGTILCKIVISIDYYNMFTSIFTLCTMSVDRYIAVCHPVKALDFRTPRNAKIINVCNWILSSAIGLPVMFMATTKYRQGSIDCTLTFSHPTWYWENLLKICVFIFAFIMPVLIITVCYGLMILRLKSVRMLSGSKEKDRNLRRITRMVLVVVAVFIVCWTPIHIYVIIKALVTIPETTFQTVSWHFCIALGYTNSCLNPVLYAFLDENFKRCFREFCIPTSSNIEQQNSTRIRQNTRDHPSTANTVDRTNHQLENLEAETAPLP
Chain of Vascular endothelial growth factor receptor 2 (P35968 whole entry): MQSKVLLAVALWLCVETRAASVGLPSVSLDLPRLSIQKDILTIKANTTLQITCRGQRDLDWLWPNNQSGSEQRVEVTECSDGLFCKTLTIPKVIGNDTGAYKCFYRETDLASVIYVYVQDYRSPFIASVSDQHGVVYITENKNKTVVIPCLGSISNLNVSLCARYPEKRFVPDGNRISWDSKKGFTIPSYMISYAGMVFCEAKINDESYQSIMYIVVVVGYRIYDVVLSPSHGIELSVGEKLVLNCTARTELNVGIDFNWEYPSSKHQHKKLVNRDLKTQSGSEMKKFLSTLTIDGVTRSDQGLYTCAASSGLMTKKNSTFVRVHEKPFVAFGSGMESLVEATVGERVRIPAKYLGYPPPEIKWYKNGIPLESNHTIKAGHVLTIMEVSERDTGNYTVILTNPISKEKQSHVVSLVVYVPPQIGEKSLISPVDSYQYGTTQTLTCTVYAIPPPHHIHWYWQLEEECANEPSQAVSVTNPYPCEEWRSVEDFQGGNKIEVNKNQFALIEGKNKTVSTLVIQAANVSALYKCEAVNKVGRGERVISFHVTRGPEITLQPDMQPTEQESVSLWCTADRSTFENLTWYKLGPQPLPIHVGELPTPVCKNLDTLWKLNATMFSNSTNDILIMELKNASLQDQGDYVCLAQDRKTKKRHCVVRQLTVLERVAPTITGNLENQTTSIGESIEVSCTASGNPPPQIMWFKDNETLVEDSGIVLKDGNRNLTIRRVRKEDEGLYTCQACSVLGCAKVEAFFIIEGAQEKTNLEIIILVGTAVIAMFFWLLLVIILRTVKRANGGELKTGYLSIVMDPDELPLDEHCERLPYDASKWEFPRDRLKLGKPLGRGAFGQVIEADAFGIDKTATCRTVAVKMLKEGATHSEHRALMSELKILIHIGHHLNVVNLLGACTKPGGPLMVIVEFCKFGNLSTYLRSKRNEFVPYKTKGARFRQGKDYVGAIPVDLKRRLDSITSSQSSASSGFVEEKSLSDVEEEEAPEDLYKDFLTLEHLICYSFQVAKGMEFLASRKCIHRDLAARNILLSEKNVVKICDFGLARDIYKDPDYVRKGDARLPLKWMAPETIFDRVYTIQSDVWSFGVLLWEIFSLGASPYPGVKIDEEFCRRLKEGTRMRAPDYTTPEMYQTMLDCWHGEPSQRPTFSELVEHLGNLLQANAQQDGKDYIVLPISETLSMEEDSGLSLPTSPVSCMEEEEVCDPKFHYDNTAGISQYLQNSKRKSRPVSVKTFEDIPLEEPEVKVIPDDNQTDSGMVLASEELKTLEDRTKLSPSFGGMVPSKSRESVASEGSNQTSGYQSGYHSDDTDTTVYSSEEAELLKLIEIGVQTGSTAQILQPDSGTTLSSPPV

Row | Compound | AC50 (Mu-type opioid receptor) | AC50 [1] | AC50 (Cannabinoid receptor 1) | AC50 [3] | AC50 (Histamine H2 receptor) | AC50 (Progesterone receptor) | AC50 (D(1A) dopamine receptor) | further results
1 | CC(/C=C1\SC(=S)N(CC(=O)O)C1=O)=C\c1ccccc1 | > 30 µM |  |  |  |  |  |  | 
2 | CC1(C)S[C@@H]2[C@H](NC(=O)[C@H](N)c3ccc(O)cc3)C(=O)N2[C@H]1C(=O)O [AMOXICILLIN] | > 30 µM | > 30 µM | > 30 µM | > 30 µM | > 10 µM | > 30 µM | > 10 µM | AC50 [2]: > 10 µM; AC50 (Estrogen receptor beta): > 30 µM; AC50 [4]: > 10 µM
3 | O=C1CN2Cc3c(ccc(Cl)c3Cl)N=C2N1 [ANAGRELIDE] |  |  | > 10 µM |  |  | > 30 µM |  | 
4 | CNCC[C@@H](Oc1ccccc1C)c1ccccc1 [ATOMOXETINE] | 18 µM |  |  |  |  |  |  | 
5 | CCc1oc2ccccc2c1C(=O)c1cc(Br)c(O)c(Br)c1 [BENZBROMARONE] |  |  | > 10 µM |  |  | > 30 µM |  | AC50 (Estrogen receptor): 7.6 µM
6 | CO/N=C(\C(=O)N[C@@H]1C(=O)N2C(C(=O)O)=C(COC(N)=O)CS[C@H]12)c1ccco1 [CEFUROXIME] | > 30 µM |  |  |  |  |  |  | 
7 | [H]/N=C(\N/C(=N/[H])NCCCCCCNC(=N)NC(=N)Nc1ccc(Cl)cc1)Nc1ccc(Cl)cc1 [CHLORHEXIDINE] | > 10 µM |  | 3.07 µM |  |  |  |  | 
8 | Clc1cccc(Cl)c1N=C1NCCN1 [CLONIDINE] |  | > 30 µM | > 10 µM | > 30 µM | > 10 µM | > 30 µM | > 10 µM | 
9 | COC(=O)[C@H](c1ccccc1Cl)N1CCc2sccc2C1 [CLOPIDOGREL] | > 30 µM | > 30 µM | > 30 µM | > 30 µM | > 10 µM | > 30 µM | > 10 µM | AC50 [2]: > 10 µM; AC50 (Estrogen receptor): > 30 µM; AC50 (Estrogen receptor beta): > 30 µM; AC50 [4]: > 10 µM
10 | CN1C[C@H](C(=O)N[C@]2(C)O[C@@]3(O)[C@@H]4CCCN4C(=O)[C@H](Cc4ccccc4)N3C2=O)C[C@@H]2c3cccc4[nH]cc(c34)C[C@H]21 [DIHYDROERGOTAMINE] |  | 0.26 µM | > 10 µM | > 30 µM | 0.257 µM | > 30 µM | 5.47 µM | AC50 (Estrogen receptor beta): > 30 µM
11 | C#Cc1cccc(Nc2ncnc3cc(OCCOC)c(OCCOC)cc23)c1 [ERLOTINIB] |  |  |  |  |  |  |  | AC50 (Estrogen receptor): > 30 µM
12 | CC1(C)O[C@@H]2C[C@H]3[C@@H]4C[C@H](F)C5=CC(=O)C=C[C@]5(C)[C@H]4[C@@H](O)C[C@]3(C)[C@]2(C(=O)CO)O1 [FLUNISOLIDE] |  |  |  |  |  |  |  | AC50 (Estrogen receptor): > 30 µM
13 | CCC(=O)O[C@@H](O[P@](=O)(CCCCc1ccccc1)CC(=O)N1C[C@H](C2CCCCC2)C[C@H]1C(=O)O)C(C)C [FOSINOPRIL] | > 30 µM |  |  |  |  |  |  | 
14 | Nc1nc(O)c2ncn(COC(CO)CO)c2n1 [GANCICLOVIR] | > 30 µM |  |  |  |  |  |  | 
15 | Cc1cnc(NC(=O)C2=C(O)c3ccccc3S(=O)(=O)N2C)s1 [MELOXICAM] |  | > 30 µM | > 10 µM | > 30 µM | > 10 µM | > 30 µM | > 10 µM | AC50 [2]: > 10 µM; AC50 (Estrogen receptor beta): > 30 µM; AC50 [4]: > 10 µM
16 | CC(=O)/N=c1/sc(S(N)(=O)=O)nn1C [METHAZOLAMIDE] | > 30 µM |  | > 10 µM |  |  |  |  | 
17 | CC[C@@H](CO)NC(=O)[C@@H]1C=C2c3cccc4[nH]cc(c34)C[C@H]2N(C)C1 [METHYLERGONOVINE] | > 30 µM |  |  |  |  |  |  | 
18 | CC(=O)Oc1ccccc1C(=O)Nc1ncc([N+](=O)[O-])s1 [NITAZOXANIDE] | > 30 µM |  |  |  |  |  |  | 
19 | CNCCC=C1c2ccccc2CCc2ccccc21 [NORTRIPTYLINE] | > 30 µM |  |  |  |  |  | 0.386 µM | AC50 [2]: 0.262 µM
20 | CN(C)c1cc(CNCC(C)(C)C)c(O)c2c1C[C@H]1C[C@H]3[C@H](N(C)C)C(O)=C(C(N)=O)C(=O)[C@@]3(O)C(O)=C1C2=O [OMADACYCLINE] | > 30 µM |  |  |  |  |  |  | AC50 [2]: > 30 µM
21 | COc1ccnc(C[S+]([O-])c2nc3ccc(OC(F)F)cc3[nH]2)c1OC (stereo not given) [PANTOPRAZOLE] |  | > 30 µM | > 10 µM | > 30 µM | > 10 µM | > 30 µM | > 10 µM | AC50 (Estrogen receptor beta): > 30 µM
22 | COc1ccc(Cc2nccc3cc(OC)c(OC)cc23)cc1OC [PAPAVERINE] | > 30 µM |  |  |  |  |  |  | 
23 | CNC[C@H](O)c1cccc(O)c1 [PHENYLEPHRINE] | > 30 µM |  | > 10 µM | > 30 µM | > 10 µM | > 30 µM | > 10 µM | AC50 [2]: > 10 µM; AC50 (Estrogen receptor beta): > 30 µM; AC50 [4]: > 10 µM
24 | O=C1NC(=O)C(c2ccccc2)(c2ccccc2)N1 [PHENYTOIN] |  | > 30 µM | > 10 µM | > 30 µM |  | > 30 µM |  | AC50 [5]: > 30 µM
25 | CCCN(CCC)CCc1cccc2c1CC(=O)N2 [ROPINIROLE] | > 30 µM | > 30 µM | > 10 µM | > 30 µM | > 10 µM | > 30 µM | > 10 µM | AC50 (Estrogen receptor beta): > 30 µM; AC50 [5]: > 30 µM
26 | CCCCNc1ccc(C(=O)OCCN(C)C)cc1 [TETRACAINE] |  | > 30 µM | > 10 µM | > 30 µM | 4.08 µM | > 30 µM | > 10 µM | AC50 [2]: > 10 µM; AC50 [4]: > 10 µM
27 | Cn1c(=O)c2[nH]cnc2n(C)c1=O [THEOPHYLLINE] |  |  | > 10 µM | > 30 µM |  | > 30 µM | > 10 µM | 
28 | CN1CCN(CCCN2c3ccccc3Sc3ccc(S(=O)(=O)N(C)C)cc32)CC1 [THIOPROPERAZINE] | > 30 µM |  |  |  |  |  |  | 
29 | CC1(C)O[C@@H]2[C@@H](CO[C@@]3(COS(N)(=O)=O)OC(C)(C)O[C@@H]23)O1 [TOPIRAMATE] |  | > 30 µM | > 10 µM | > 30 µM | > 10 µM | > 30 µM | > 10 µM | AC50 [2]: > 10 µM; AC50 (Estrogen receptor beta): > 30 µM; AC50 [4]: > 10 µM
30 | Cc1cc(CC(=O)O)n(C)c1C(=O)c1ccc(Cl)cc1 [ZOMEPIRAC] | > 30 µM |  |  |  |  |  |  | 
